Data set [1] deals with human serum albumin (HSA) (Homo sapiens, UniProt P02768). Put plainly: HSA fluorescence quenching (protein-binding experiments). To be noted: [HSA] = 1 μM, [Ru] 0–10 μM, PBS pH 7.4, 37 °C. The procedure: The protein stock solution was prepared by dissolving human serum albumin (HSA) in water and its concentration was determined spectrophotometrically from the molar absorptivity of 4.4 × 10^4 cm^−1 M^−1 at 280 nm. The emission spectra were recorded between 305 and 500 nm upon excitation at 295 nm resulting in selective excitation of tryptophan residue of HSA. The average of three scans was subjected to smoothing and the fluorescence intensities were corrected due to dilution effects. Protein-binding experiments were conducted by measuring fluorescence spectra of protein solution (1 μM) in the presence of different amounts of ruthenium compounds (0–10 μM) in PBS buffer pH 7.4 at 37 °C. Ru–protein solutions were allowed to incubate for 5 min before the emission spectra were recorded. The quantum yield and lifetime of luminescence for ruthenium complexes in the present of HSA (1 μM) was measured using the same procedure as described for ruthenium complexes alone (the HSA/Ru-complex ratio is given in the figure caption). […]
Sequence of human serum albumin (HSA) (P02768 25-609): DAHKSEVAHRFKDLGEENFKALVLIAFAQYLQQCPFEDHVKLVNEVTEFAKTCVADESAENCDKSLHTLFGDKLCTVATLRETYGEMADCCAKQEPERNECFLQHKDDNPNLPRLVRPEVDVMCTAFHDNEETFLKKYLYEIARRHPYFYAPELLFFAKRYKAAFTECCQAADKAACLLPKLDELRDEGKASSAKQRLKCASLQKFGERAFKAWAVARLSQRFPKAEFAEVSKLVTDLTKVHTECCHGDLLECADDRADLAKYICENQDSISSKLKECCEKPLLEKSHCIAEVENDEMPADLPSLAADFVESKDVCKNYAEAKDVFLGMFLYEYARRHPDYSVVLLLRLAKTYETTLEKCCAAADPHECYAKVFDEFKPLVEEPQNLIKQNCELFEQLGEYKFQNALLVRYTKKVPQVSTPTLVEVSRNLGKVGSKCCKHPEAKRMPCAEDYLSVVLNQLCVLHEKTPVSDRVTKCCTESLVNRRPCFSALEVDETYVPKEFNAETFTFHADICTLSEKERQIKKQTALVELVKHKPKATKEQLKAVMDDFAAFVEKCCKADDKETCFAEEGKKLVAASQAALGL
When molecules are bound to HSA, the change in fluorescence of HSA (Trp214) is induced ether by quenching by binding of molecules in close proximity of the residue or by conformational change of protein caused by the binding or other interactions. Albumin […]
polypyridyl complexes. The contribution to the observed emission from ruthenium complex is marginal. The Stern-Volmer equation has been employed for quantitative analysis of the […]
where F0 and F are the fluorescence intensities of HSA in the absence and the presence of quencher (Q, Ru complex), respectively; kq is the bimolecular quenching constant; τ0 is the average lifetime of the HSA in the absence of quencher (7 × 10-9 s), [Q] is the concentration of quencher, KSV is the Stern–Volmer constant. Since ruthenium complexes both absorb light at the excitation and the emission wavelengths in order to correlate the inner filter effect the following equation was used: where Fcor and F are the corrected/uncorrected fluorescence intensities of HSA, Aem and Aex are the absorbance value of the solution at the emission and the excitation wavelength […]
quenching involving some type of binding interaction between HSA and ruthenium complexes. In this case the Stern-Volmer constant can be consider as an association constant for formation of HSA-Ru-complexes adducts. […]
(also on this page, place not known: nm , Stern -Volmer ][1][1 0 0 QKQkF SVq ·+=·+= τ 10 -9 [ Q] Stern –Volmer es 210 exem AA cor FF + ·= F -binding ct -DNA ba nds complex w ith DNA)

In data set [2] the test system is Calf thymus deoxyribonucleic acid. Put plainly: DNA absorption titration (intrinsic DNA-binding constant). To be noted: [Ru] = 10 µM, 0.05 M Tris/HCl pH 7.4, 37 °C. The procedure:
Calf thymus deoxyribonucleic acid was purchased from Sigma-Aldrich and its stock solution was prepared by dissolving of solid DNA in water. DNA concentrations per nucleotide were determined by absorption spectroscopy using the molar absorption coefficient of 6,600 M^−1cm^−1 at the wavelength of 260 nm. DNA-binding experiments were performed in 0.05 M Tris/HCl buffer (pH 7.4) at 37 °C. […] Ruthenium–DNA solutions were allowed to incubate for 5 min before the spectra were recorded. The intrinsic DNA-binding constant was calculated from the following Eq. [4]. DNA/εa-εf=DNA/εa-εf+1/Kbεb-εf, where [DNA] is the total DNA concentration in nucleotides, ε a, ε b, ε f are the apparent absorption coefficients of A/[ruthenium complex] of the MLCT absorption band at a given DNA concentration, fully bound and free ruthenium complex, respectively, K b is binding constant.
To be submitted to Journal of Biological Inorganic Chemistry intercalation.[4] The hypochromism and batochromism at MLCT bands is found usually higher for other reported polypyridyl DNA intercalative Ru(II) complexes.[5-8] To assess this interaction the intrinsic DNA-binding constant was calculated from the following equation […]
where [DNA] is the total DNA concentration in nucleotides, εa, εb, εf are the apparent absorption coefficients of A/[ruthenium complex] of the MLCT absorption band at a given DNA concentration, fully bound and free ruthenium complex, respectively, Kb is binding […]
isosbestic points and gradual decrease of the absorption of MLCT bands. This observation […]
rather week interaction with DNA it is not further discussed.
Fig. S3. Changes in absorption spectra of [Ru(dip)2(CH3bpy-DCU)]2+ and [Ru(dip)2(CH3bpy-CH3)]2+ after addition of ct-DNA. Experimental conditions: [Ru] = 10 μM; Tris/HCl pH 7.4, T = 37°C, A. [DNA] = 0 – 2 μM; B. [DNA] = 5 – 120 μM. […]

Data set [3] can be described thus: n-octan-1-ol/water partition (lipophilicity). The data set is classed as physicochemical. To be noted: 25 °C. How it is done:
The lipophilicity of the ruthenium(II) complexes, which is referred to log P o/w (n-octan-1-ol/water partition coefficient), was measured as following. Ruthenium complexes were dissolved in n-octan-1-ol (to mM concentration), then solutions were added to water and the mixtures were stirred sufficiently for partitioning at 25 °C for 24 h. After that the mixtures were left for equilibration for another 2 h. The concentration of the compounds in the water phase was measured spectrophotometrically and P o/w value was calculated according to the equation: PO/w=coctanolbefore-cwater/cwater , where coctanolbefore is an initial concentration of ruthenium complex, c water denotes final concentration in water. The experiment was conducted in triplicates.

The test system of data set [4] is Human lung adenocarcinoma epithelial cell line (A549). The experiment in a line: Alamar Blue cell viability, A549. The data set is classed as cell-based. To be noted: A549, 24 h. How it is done: (§1) 10% FBS, 1% peniciline and streptomycin and 0.2% fungizone. Cells were routinely cultured at 37 °C in a humidified incubator in 5% CO2 atmosphere.
(§2) Cell viability was measured using Alamar Blue assay. Cells were seeded on 96 wells plate with density of 1 × 10^4 cells per cm2 and cultured for 1 day. Then cells were incubated with various concentrations of compounds in medium with or without 2% FBS for 24 and 48 h under normoxic and hypoxic conditions in the darkness. Next cells were washed with PBS and incubated in Alamar Blue solution for 3 h. The cell viability was quantified at 605 nm using 560 nm excitation light (VICTOR 3V multilabel plate reader PerkinElmer or Tecan Infinite200 Reader). Experiments were performed in triplicates and each experiment was performed at least three times to get the mean values ± standard derivation. The viability was calculated with regard to the untreated cells control. The IC50 values were determined using Hill equation (Origin 9.0). […]

Data set [5] deals with murine endothelial cells isolated from aorta-gonad-mesonephros (AGM) region of 10.5 dpc embryos (MAgEC 10.5). The experiment in a line: Alamar Blue cell viability, MAgEC 10.5. The data set is classed as cell-based. The conditions noted are these: MAgEC 10.5, 24 h. The procedure: FVB mouse lung microvascular endothelial cells (MLuMEC FVB) and murine endothelial cells isolated from aorta-gonad-mesonephros (AGM) region of 10.5 dpc embryos (MAgEC 10.5) were cultured in OptiMEM with Glutamax-I (Gibco Invitrogen) supplemented with 2% fetal bovine serum (FBS), 0.4% gentamycin and 0.2% fungizone. […]
as §1, §2
In general terms: Alamar Blue is a resazurin reagent that responds to reducing activity.

The results in this text go back to PMC4240912, “Multifaceted interplay between lipophilicity, protein interaction and luminescence parameters of non-intercalative ruthenium(II) polypyridyl complexes controlling cellular imaging and cytotoxic properties” (Journal of Biological Inorganic Chemistry, 2014).

In the case of `Cc1ccnc(-c2cc(C)ccn2)c1.[Ru+2].c1ccc(-c2ccnc3c2ccc2c(-c4ccccc4)ccnc23)cc1.c1ccc(-c2ccnc3c2ccc2c(-c4ccccc4)ccnc23)cc1` [[Ru(dip)2(CH3bpy-CH3)]^2+], in data set [1], the “K a, association constant for formation of HSA-ruthenium(II) polypyridyl complex adducts” value (“K a, association constant for formation” below) is on record as 1.24 ± 0.06 ×10^5 M^−1. Further, the “K b, binding constant for formation of DNA-ruthenium(II) polypyridyl complex adducts” value (“K b, binding constant for formation” for short) in data set [2] is 0.53 ± 0.03 ×10^5 M^−1. Further, the “log P o/w” value in data set [3] was 0.484 ± 0.046. The IC50 (as a rule, the concentration at which inhibition is half-maximal) in data set [4] (with serum (2%)) worked out at 11.6 ± 2.19 µM; in data set [4] (without serum), 5.47 ± 0.87 µM; in data set [5] (with serum (2%)), 6.28 ± 0.52 µM; in data set [5] (without serum) it was 2.45 ± 0.42 µM.

On to `Cc1ccnc(-c2cc(C(=O)[O-])ccn2)c1.[Ru+2].c1ccc(-c2ccnc3c2ccc2c(-c4ccccc4)ccnc23)cc1.c1ccc(-c2ccnc3c2ccc2c(-c4ccccc4)ccnc23)cc1` [[Ru(dip)2(CH3bpy-COO)]^+], for which, in data set [1], the “K a, association constant for formation” value was 1.17 ± 0.04 ×10^5 M^−1. Moreover, the “K b, binding constant for formation” value in data set [2] is reported as 1.05 ± 0.15 ×10^5 M^−1. Also, in data set [3], the “log P o/w” value turned out to be 1.857 ± 0.079. For the same compound, the IC50 turned out to be 9.79 ± 0.89 µM in data set [4] (with serum (2%)), 6.05 ± 1.87 µM in data set [4] (without serum), 16 ± 1.5 µM in data set [5] (with serum (2%)) and 7.23 ± 0.53 µM in data set [5] (without serum).

Take `[Ru+2].c1ccc(-c2ccccn2)nc1.c1ccc(-c2ccnc3c2ccc2c(-c4ccccc4)ccnc23)cc1.c1ccc(-c2ccnc3c2ccc2c(-c4ccccc4)ccnc23)cc1` [[Ru(dip)2(bpy)]^2+]: the “K a, association constant for formation” value in data set [1] is listed as 0.78 ± 0.02 ×10^5 M^−1. The “K b, binding constant for formation” value in data set [2] is recorded as 0.82 ± 0.01 ×10^5 M^−1. Also, the “log P o/w” value in data set [3] amounted to 0.328 ± 0.026. The IC50 came to 27.7 ± 1.2 µM in data set [4] (with serum (2%)), 13.5 ± 5.3 µM in data set [4] (without serum), 16.7 ± 1.88 µM in data set [5] (with serum (2%)) and 4.15 ± 0.57 µM in data set [5] (without serum).

`O=[N+]([O-])c1nccn1CCCc1ccnc(-c2ccccn2)c1.[Ru+2].c1ccc(-c2ccnc3c2ccc2c(-c4ccccc4)ccnc23)cc1.c1ccc(-c2ccnc3c2ccc2c(-c4ccccc4)ccnc23)cc1` [[Ru(dip)2(bpy-NitroIm)]^2+]: in data set [1], the “K a, association constant for formation” value was 1.10 ± 0.06 ×10^5 M^−1. In addition, the “K b, binding constant for formation” value in data set [2] was 0.68 ± 0.01 ×10^5 M^−1. In data set [3], the “log P o/w” value is 0.413 ± 0.083. For the same compound, the concentration for half-maximal inhibition (IC50) in data set [4] (with serum (2%)) came out at 17.5 ± 5.7 µM; in data set [4] (without serum), 11.8 ± 1.2 µM; in data set [5] (with serum (2%)), 7.4 ± 0.81 µM; in data set [5] (without serum), 4.65 ± 0.62 µM.

Consider “[Ru(dip)2(1,3-dicyclohexyl-1-[4-carbonyl-(4′-methyl-2,2′-bipyridyl)]-urea)]Cl2 [[Ru(dip)2(CH3bpy-DCU)]^2+]”, for which, in data set [1], the “K a, association constant for formation” value is listed as 0.98 ± 0.03 ×10^5 M^−1. For the same compound, in data set [2], the “K b, binding constant for formation” value is reported as 0.60 ± 0.02 ×10^5 M^−1. The “log P o/w” value in data set [3] is listed as 1.114 ± 0.012. For the same compound, the half-maximal inhibitory concentration (IC50) in data set [4] (with serum (2%)) came out at 7.22 ± 0.34 µM; in data set [4] (without serum), 5.43 ± 0.11 µM; in data set [5] (with serum (2%)), 4.62 ± 0.22 µM; in data set [5] (without serum), 2.54 ± 1.12 µM.
